In EP2127643A1, “Oral pellet composition with time-delayed release” (Bayer Schering Pharma Aktiengesellschaft, priority 2008, dated 2009):
Like-named read-outs stand apart in the source and are kept apart here. Values belong to the molecule of their own block, whether it stands above or below them.

Tests used:
CYP-2C9 = CYP-2C9 (Homo sapiens, UniProt P11712); experiment: CYP test: inhibition of cytochrome P450 isoenzymes by excipients; assay type: biochemical
CYP-2C19 = CYP-2C19 (Homo sapiens, UniProt P33261); experiment: as above; assay type: biochemical
CYP-3A4 = CYP-3A4 (Homo sapiens, UniProt P08684); experiment: as above; assay type: biochemical
[1] = human, cited from earlier work
[2] = rats; paclitaxel oral 30 min after oral morin; cited from earlier work
[3] = human; oral paclitaxel with simultaneous cyclosporin (Pgp inhibitor); cited from earlier work
[4] = concentration of excipient at which 50 % of the isoenzyme is inhibited

Chain of CYP-3A4 (P08684 whole entry): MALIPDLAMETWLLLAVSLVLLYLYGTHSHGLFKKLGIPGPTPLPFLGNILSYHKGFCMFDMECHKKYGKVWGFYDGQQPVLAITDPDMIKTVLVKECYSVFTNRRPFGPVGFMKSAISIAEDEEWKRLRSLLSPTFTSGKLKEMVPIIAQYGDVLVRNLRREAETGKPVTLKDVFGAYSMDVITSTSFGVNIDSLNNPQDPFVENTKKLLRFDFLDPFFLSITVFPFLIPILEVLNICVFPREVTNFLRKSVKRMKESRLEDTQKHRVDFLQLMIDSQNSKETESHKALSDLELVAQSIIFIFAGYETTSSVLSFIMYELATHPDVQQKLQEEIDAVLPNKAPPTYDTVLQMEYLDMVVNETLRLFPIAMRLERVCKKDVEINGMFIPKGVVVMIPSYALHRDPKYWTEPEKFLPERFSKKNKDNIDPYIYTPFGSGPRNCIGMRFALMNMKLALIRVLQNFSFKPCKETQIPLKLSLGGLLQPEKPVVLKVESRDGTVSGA
Chain of CYP-2C19 (P33261 whole entry): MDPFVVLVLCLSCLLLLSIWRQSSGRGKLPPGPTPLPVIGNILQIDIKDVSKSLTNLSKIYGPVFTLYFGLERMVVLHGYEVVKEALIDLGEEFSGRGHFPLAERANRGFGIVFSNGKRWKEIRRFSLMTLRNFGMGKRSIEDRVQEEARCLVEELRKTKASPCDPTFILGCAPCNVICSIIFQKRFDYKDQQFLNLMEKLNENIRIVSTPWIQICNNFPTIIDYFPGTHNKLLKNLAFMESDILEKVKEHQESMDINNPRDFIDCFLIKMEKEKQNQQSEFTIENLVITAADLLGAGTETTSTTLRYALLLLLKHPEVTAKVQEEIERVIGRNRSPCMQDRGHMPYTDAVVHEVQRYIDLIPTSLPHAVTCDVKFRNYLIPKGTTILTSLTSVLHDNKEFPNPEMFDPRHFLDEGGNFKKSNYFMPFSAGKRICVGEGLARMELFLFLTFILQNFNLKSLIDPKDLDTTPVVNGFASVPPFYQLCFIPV
Chain of CYP-2C9 (P11712 whole entry): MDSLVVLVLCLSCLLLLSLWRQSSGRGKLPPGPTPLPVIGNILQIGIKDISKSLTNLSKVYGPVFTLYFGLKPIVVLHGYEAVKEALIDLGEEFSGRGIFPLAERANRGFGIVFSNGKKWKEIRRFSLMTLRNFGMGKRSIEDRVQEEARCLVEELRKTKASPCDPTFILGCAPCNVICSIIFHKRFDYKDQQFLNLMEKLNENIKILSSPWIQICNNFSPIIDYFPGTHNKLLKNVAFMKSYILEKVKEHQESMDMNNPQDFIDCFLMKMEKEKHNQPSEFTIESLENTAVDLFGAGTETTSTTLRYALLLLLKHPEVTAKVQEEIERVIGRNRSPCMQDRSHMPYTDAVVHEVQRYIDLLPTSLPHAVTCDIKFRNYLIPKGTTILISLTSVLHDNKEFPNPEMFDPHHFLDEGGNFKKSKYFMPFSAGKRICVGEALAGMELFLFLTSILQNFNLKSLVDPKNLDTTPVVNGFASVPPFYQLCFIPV

IC50, µg/ml CYP-2C9 (CYP-2C9; [4]): 5,0 µg/ml
IC50, µg/ml CYP-2C19 (CYP-2C19; [4]): 6,9 µg/ml
IC50, µg/ml CYP-3A4 (CYP-3A4; [4]): 29 µg/mL
Molecule: Glycerolmonocaprylat [Imwitor®308]

Molecule: C#C[C@]1(O)CC[C@H]2[C@@H]3CCc4cc(O)ccc4[C@H]3CC[C@@]21C [Ethinylestradiol]
Anteil des beobachteten First-Pass-Effekts durch direkte Konjugation (vor allem Sulfatierung in der Darmwand) ([1]; gut wall): 65%
humane absolute Bioverfügbarkeit ([1]; oral): ~45%

Molecule: CCOCCOCCO [Transcutol®P, Ethoxydiglycol]
IC50 (CYP-2C9; concentration of excipient at which 50 % of the isoenzyme is inhibited, read-out: IC50, µg/ml CYP-2C9 (converted)): 11.2 mM
IC50 (CYP-2C19; concentration of excipient at which 50 % of the isoenzyme is inhibited, read-out: IC50, µg/ml CYP-2C19 (converted)): 10.4 mM
IC50 (CYP-3A4; concentration of excipient at which 50 % of the isoenzyme is inhibited, read-out: IC50, µg/ml CYP-3A4 (converted)): 5.63 mM

Molecule: CC(=O)O[C@H]1C(=O)[C@@]2(C)[C@H]([C@H](OC(=O)c3ccccc3)[C@]3(O)C[C@H](OC(=O)[C@H](O)[C@@H](NC(=O)c4ccccc4)c4ccccc4)C(C)=C1C3(C)C)[C@]1(OC(C)=O)CO[C@@H]1C[C@@H]2O [Paclitaxel]
Erhöhung der AUC [2]: ≤ 70%
Bioverfügbarkeit erhöht um Faktor [3]: 9

Molecule: CCCCCCCC/C=C\CCCCCCCC(=O)OCC [Ethyloleat]
IC50 (CYP-2C9): 0.628 mM
IC50 (CYP-2C19): 1.05 mM
IC50 (CYP-3A4): 0.377 mM
